# Where two headings read alike, the source gives them in different places.
# Experiments:
# gastric acid secretion = settings: cited from earlier work
# [1] = mean ± SD
# [2] = Adverse events in the clinical study; assay type: in vivo, healthy Korean volunteers; settings: CYP2C19 PM group; 20 mg oral once daily for 8 days
structure (smiles),measurement,setting,value
COc1c(C)cnc(C[S+]([O-])c2nc3ccc(O)cc3[nH]2)c1C (stereo not drawn) [5-O-demethylomeprazole],effect on gastric acid secretion,gastric acid secretion,does not have an effect on gastric acid secretion
COc1ccc2nc(S(=O)(=O)Cc3ncc(C)c(OC)c3C)[nH]c2c1 [omeprazole sulfone],"Metabolic ratio omeprazole sulfone (AUC0→12hr, omeprazole sulfone/AUC0→12hr, omeprazole)","[1]; multiple dosing, EM (n = 8)",2.04 ± 2.39
same,"Metabolic ratio omeprazole sulfone (AUC0→12hr, omeprazole sulfone/AUC0→12hr, omeprazole)","[1]; multiple dosing, IM (n = 6)",0.87 ± 0.19
same,"Metabolic ratio omeprazole sulfone (AUC0→12hr, omeprazole sulfone/AUC0→12hr, omeprazole)","[1]; multiple dosing, PM (n = 8)",0.90 ± 0.30
same,"Metabolic ratio omeprazole sulfone (AUC0→12hr, omeprazole sulfone/AUC0→12hr, omeprazole)","[1]; single dosing, EM (n = 8)",0.78 ± 0.17
same,"Metabolic ratio omeprazole sulfone (AUC0→12hr, omeprazole sulfone/AUC0→12hr, omeprazole)","[1]; single dosing, IM (n = 6)",2.89 ± 2.63
same,"Metabolic ratio omeprazole sulfone (AUC0→12hr, omeprazole sulfone/AUC0→12hr, omeprazole)","[1]; single dosing, PM (n = 8)",0.65 ± 0.08
"COc1ccc2[nH]c([S+]([O-])Cc3ncc(C)c(OC)c3C)nc2c1 (stereo not drawn) [omeprazole, reference compound]",omeprazole-related adverse event,[2],No omeprazole-related adverse event
same,duration of effect after a single dose,gastric acid secretion; drug still effective after a single dose,24 to 72 h
